{"source": "paper PMC11127330", "about": "“Repurposing harmaline as a novel approach to reverse tmexCD1-toprJ1-mediated tigecycline resistance against klebsiella pneumoniae infections” (Microbial Cell Factories, 2024)", "target": "T1, TMexD1 (Klebsiella pneumoniae, UniProt A0A411AKL6)", "T1 construct": "GST fusion from pGEX-6P-1-tmexD1 (BamHI/XhoI), E. coli BL21(DE3); plasmid-borne gene of tmexCD1-toprJ1", "T1 sequence (A0A411AKL6 entry or part of it)": "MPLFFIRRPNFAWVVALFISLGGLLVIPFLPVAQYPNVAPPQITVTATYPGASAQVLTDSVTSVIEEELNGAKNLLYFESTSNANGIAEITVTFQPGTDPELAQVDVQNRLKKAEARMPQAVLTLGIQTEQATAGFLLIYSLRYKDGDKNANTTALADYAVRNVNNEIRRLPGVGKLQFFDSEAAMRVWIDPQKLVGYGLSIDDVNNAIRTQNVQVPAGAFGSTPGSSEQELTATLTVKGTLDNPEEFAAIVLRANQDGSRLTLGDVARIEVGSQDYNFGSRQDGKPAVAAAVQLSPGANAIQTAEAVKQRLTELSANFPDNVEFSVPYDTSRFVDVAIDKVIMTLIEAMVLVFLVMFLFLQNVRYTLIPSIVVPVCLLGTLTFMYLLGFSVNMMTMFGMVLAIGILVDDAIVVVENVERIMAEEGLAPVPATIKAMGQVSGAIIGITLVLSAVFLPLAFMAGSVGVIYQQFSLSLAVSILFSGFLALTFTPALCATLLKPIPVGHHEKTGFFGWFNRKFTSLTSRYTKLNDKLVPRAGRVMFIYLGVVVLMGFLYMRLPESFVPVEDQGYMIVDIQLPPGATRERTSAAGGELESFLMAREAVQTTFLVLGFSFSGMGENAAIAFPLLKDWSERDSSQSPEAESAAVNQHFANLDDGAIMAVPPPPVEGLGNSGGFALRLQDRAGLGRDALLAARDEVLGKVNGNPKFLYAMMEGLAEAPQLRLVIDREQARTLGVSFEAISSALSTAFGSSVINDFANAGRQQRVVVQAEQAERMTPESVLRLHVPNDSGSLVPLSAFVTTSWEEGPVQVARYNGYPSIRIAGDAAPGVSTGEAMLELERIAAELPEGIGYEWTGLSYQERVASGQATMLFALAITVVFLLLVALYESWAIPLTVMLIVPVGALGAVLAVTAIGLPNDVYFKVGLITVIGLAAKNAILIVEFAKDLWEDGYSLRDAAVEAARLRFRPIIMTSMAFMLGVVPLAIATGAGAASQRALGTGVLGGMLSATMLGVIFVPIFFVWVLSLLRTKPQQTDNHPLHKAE", "experiment": "circular dichroism, secondary structure change", "conditions": "harmaline 128 mg/L; 190-260 nm; indirect evidence of binding", "data": [{"smiles": "COc1ccc2c3c([nH]c2c1)C(C)=NCC3", "note": "[harmaline]", "values": [{"measurement": "circular dichroism, secondary structure change", "value": "TMexD1 (Fig. 7C and D) and TOprJ1 (Fig. 7E and F) were observed by harmaline treatment"}]}]}
